What was measured:
Type in all cases: biochemical
Syk = target: T1, Syk (Homo sapiens, UniProt P43405); assay: Syk enzyme assay (flash plate / Caliper mobility shift)
T1 construct: purchased BPS Bioscience, CA, USA
Experimental: The kinase assay is performed either as 384-well Flashplate assay (for e.g. Topcount measurement) or as 384-well Image-Flashplate assay (for LEADseeker measurement).
2.5 nM SYK, 400 nM Biotin-Aha-Aha-[…] and 10 μM ATP (spiked with 0.3 μCi 33P-ATP/well) are incubated in a total volume of 50 μl (60 mM Hepes, 10 mM MgCl2, 1.2 mM Dithiothreitol, 0.02% Brij35, 0.1% BSA, pH 7.5) with or without test compound for 1 hours at 30° C. The reaction is stopped with 25 μl 200 mM EDTA. After 30 Min at 30° C. the liquid is removed and each well washed thrice with 100 μl 0.9% sodium chloride solution. Non-specific reaction is determined in presence of 0.1 μM Staurosporine. Radioactivity is measured with Topcount (when using Flashplates) or with LEADseeker (when using Image-Flashplates) respectively. Results (e.g. IC50-values) are calculated with program tools provided by the IT-department (e.g. Symyx Assay Explorer, Genedata Screener).
(§1) Enzymatic Assays Using the Caliper LifeSciences Technology
(§2) The assays described here are performed on the Caliper Life Sciences LC3000 system This technology provides data on enzyme activity via measurement of the relative amounts of phosphorylated or unphosphorylated fluorescently labelled substrate peptide at the end of an enzymatic reaction. These different states of peptide are resolved by applying a potential difference across the sample. The presence of the charged phosphate group on the product (as opposed to the substrate) causes a different peptide mobility between the two peptides. This is visualized by excitation of the fluorescent label on the substrate and product peptides and represented as peaks within the analysis software.
(§3) In order to measure inhibitor activity of kinase inhibitors on this technology, a TTP Mosquito liquid handling instrument is used to place 0.25 ul of the appropriate concentration of inhibitor in 100% DMSO (for a dose response curve calculation) into each well of a 384-well plate. To this reaction components are added to a final volume of 25 ul. The table below indicates the sequences and concentrations for the assays described in this report. Standard components are 1 mM DTT (Sigma, D0632), 1 mM MgCl2 (Sigma, M1028), 100 mM HEPES pH 7.5 (Calbiochem, 391338), 0.015% Brij-35 (Sigma, B4184).
(§4) The reaction is incubated for 90 min at 25 C, and then stopped by the addition of 70 ul of Stop buffer (100 mM HEPES pH 7.5, 0.015% Brij-35, 10 mM EDTA (Sigma, E7889)).
(§5) The plate is read on a Caliper LC 3000 in an Off-Chip mobility shift assay format, on a 12-sipper chip. Unphosphorylated substrate and phosphorylated product peptide resolve as separate peaks allowing direct measurement of percentage of conversion of substrate to product. The percent conversion can be plotted against concentration of inhibitor to produce a sigmoidal dose response curve, from which an IC50 can be calculated using GeneData Condoseo or a similar product. Cellular activity assays

KDR = target: T2, KDR (Homo sapiens, UniProt P35968); assay: KDR enzymatic assay (Caliper LifeSciences technology)
T2 construct: purchased BPS Bioscience, CA, USA
Experimental: as §1, §2, §3, §4, §5

ZAP-70 = target: T3, ZAP-70 (Homo sapiens, UniProt P43403); assay: Zap70 enzymatic assay (Caliper LifeSciences technology)
T3 construct: purchased BPS Bioscience, CA, USA
T3 sequence (P43403 1-619): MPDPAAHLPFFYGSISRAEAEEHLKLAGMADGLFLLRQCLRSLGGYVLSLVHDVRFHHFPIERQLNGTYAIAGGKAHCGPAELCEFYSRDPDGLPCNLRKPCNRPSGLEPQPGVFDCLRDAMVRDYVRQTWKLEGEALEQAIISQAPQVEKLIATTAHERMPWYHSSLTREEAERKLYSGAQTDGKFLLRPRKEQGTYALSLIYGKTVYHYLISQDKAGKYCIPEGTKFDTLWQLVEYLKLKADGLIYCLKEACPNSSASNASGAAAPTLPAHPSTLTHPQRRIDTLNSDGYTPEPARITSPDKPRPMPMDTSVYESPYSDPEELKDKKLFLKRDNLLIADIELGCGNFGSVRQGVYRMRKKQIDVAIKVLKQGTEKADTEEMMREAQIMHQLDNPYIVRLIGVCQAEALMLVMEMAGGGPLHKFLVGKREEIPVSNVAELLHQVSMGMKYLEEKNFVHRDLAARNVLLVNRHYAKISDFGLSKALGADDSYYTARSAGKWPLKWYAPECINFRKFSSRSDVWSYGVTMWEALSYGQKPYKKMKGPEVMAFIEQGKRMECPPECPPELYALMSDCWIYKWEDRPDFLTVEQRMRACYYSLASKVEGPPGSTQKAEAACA
Experimental: as §1, §2, §3, §4, §5

T2 sequence (P35968 20-1356): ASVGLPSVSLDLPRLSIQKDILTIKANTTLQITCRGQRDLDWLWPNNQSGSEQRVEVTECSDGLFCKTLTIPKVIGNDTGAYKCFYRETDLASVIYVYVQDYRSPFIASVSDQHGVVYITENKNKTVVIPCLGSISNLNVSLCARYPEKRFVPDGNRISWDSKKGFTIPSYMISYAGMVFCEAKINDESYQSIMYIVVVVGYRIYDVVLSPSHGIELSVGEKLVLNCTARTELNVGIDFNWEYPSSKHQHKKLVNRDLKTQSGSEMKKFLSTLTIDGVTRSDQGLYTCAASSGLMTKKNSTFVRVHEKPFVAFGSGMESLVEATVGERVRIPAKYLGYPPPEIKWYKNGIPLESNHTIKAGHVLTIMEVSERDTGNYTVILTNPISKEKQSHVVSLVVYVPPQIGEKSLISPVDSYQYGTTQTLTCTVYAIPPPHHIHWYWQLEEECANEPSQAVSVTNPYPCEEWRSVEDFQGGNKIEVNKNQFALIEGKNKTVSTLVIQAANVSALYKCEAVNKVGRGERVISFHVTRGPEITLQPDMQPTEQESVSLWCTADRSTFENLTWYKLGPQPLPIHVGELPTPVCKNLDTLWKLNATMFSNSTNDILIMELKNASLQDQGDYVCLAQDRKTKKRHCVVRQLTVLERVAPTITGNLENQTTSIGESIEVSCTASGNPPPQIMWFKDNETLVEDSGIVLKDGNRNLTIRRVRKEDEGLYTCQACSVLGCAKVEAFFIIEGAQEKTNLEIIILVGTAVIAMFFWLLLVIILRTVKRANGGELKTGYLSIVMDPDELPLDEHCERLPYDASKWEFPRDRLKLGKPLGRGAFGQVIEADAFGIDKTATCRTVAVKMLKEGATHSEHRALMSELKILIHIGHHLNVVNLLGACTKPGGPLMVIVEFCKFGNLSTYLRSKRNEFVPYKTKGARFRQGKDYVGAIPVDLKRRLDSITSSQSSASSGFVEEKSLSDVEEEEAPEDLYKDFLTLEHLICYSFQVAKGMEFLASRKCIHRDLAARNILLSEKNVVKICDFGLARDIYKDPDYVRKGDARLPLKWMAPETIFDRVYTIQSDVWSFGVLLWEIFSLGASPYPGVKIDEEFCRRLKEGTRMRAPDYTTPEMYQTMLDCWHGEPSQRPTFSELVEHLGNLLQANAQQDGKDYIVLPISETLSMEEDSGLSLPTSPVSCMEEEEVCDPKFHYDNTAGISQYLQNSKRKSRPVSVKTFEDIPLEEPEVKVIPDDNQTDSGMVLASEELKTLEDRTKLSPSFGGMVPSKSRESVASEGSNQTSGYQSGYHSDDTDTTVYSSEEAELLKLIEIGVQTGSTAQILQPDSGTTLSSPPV

Row | Compound | IC50 (Syk) | IC50 (KDR) | IC50 (ZAP-70)
1 | COc1cc(OC)cc(-c2nccn3nc(Nc4cccc(C)c4)nc23)c1 [Example C17, [8-(3,5-Dimethoxy-phenyl)-[1,2,4]triazolo[1,5-a]pyrazin-2-yl]-m-tolyl-amine] | 0.3 to 3 µM | 3 to 50 µM | 
2 | Cc1cc(C)cc(Nc2nc3c(NC4CCCCC4N)nccn3n2)c1 (centres unmarked) [Example C56, N^8-(2-Amino-cyclohexyl)-N^2-(3,5-dimethyl-phenyl)-[1,2,4]triazolo[1,5-a]pyrazine-2,8-diamine] | 3 to 50 µM | 3 to 50 µM | 
3 | Cc1cccc(Nc2nccn3nc(Nc4ccc5cnn(Cc6ccccc6)c5c4)nc23)c1 [Example C84, N^2-(1-Benzyl-1H-indazol-6-yl)-N^8-m-tolyl-[1,2,4]triazolo[1,5-a]pyrazine-2,8-diamine] |  |  | 3 to 50 µM
4 | Cc1cc(C)cc(Nc2nc3c(Nc4ccc5c(n4)NC(=O)C(C)(C)O5)nccn3n2)c1 [Example C60, 6-[2-(3,5-Dimethyl-phenylamino)-[1,2,4]triazolo[1,5-a]pyrazin-8-ylamino]-2,2-dimethyl-4H-pyrido[3,2-b][1,4]oxazin-3-one] |  |  | 3 to 50 µM
5 | Cc1cc(C)cc(Nc2nc3c(-c4ccccc4)nccn3n2)c1 [Example C7, (3,5-Dimethyl-phenyl)-(8-phenyl-[1,2,4]triazolo[1,5-a]pyrazin-2-yl)-amine] | 0.3 to 3 µM |  | 
6 | FC(F)(F)c1cccc(Nc2nc3c(-c4ccccc4)nccn3n2)c1 [Example C9, (8-Phenyl-[1,2,4]triazolo[1,5-a]pyrazin-2-yl)-(3-trifluoromethyl-phenyl)-amine] | 0.3 to 3 µM | 3 to 50 µM | 
7 | Clc1nccn2nc(Nc3ccc4cnn(Cc5ccccc5)c4c3)nc12 [Example B9, (1-Benzyl-1H-indazol-6-yl)-(8-chloro-[1,2,4]triazolo[1,5-a]pyrazin-2-yl)-amine] | 3 to 50 µM |  | 
8 | COc1cc(Nc2nc3c(-c4cc(OC)cc(OC)c4)nccn3n2)cc(OC)c1 [Example C16, (3,5-Dimethoxy-phenyl)-[8-(3,5-dimethoxy-phenyl)-[1,2,4]triazolo[1,5-a]pyrazin-2-yl]-amine] | < 0.3 µM |  | 
9 | c1ccc(Cn2ncc3ccc(Nc4nccn5nc(Nc6ccccc6)nc45)cc32)cc1 [Example C75, N^8-(1-Benzyl-1H-indazol-6-yl)-N^2-phenyl-[1,2,4]triazolo[1,5-a]pyrazine-2,8-diamine] |  |  | 3 to 50 µM
10 | Cc1cccc(Nc2nc3c(Nc4cccc(C(F)(F)F)c4)nccn3n2)c1 [Example C73, N^2-m-Tolyl-N^8-(3-trifluoromethyl-phenyl)-[1,2,4]triazolo[1,5-a]pyrazine-2,8-diamine] | 3 to 50 µM |  | 
11 | COc1ccc(Nc2nc3c(-c4cccc(NS(C)(=O)=O)c4)nccn3n2)cn1 [Example C274, N-{3-[2-(6-Methoxy-pyridin-3-ylamino)-[1,2,4]triazolo[1,5-a]pyrazin-8-yl]-phenyl}-methanesulfonamide] | 0.3 to 3 µM |  | 
12 | COc1cc(Nc2nc3c(-c4cnc5ccccc5c4)nccn3n2)cc(OC)c1 [Example C260, (3,5-Dimethoxy-phenyl)-(8-quinolin-3-yl-[1,2,4]triazolo[1,5-a]pyrazin-2-yl)-amine] | < 0.3 µM |  | 
13 | Cc1cccc(Nc2nc3c(NC4CCCCC4N)nccn3n2)c1 (centres unmarked) [Example C57, N^8-(2-Amino-cyclohexyl)-N^2-m-tolyl-[1,2,4]triazolo[1,5-a]pyrazine-2,8-diamine] | 3 to 50 µM | 3 to 50 µM | 
14 | COc1cc(Nc2nccn3nc(Nc4ccc5cnn(Cc6ccccc6)c5c4)nc23)cc(OC)c1 [Example C82, N^2-(1-Benzyl-1H-indazol-6-yl)-N^8-(3,5-dimethoxy-phenyl)-[1,2,4]triazolo[1,5-a]pyrazine-2,8-diamine] |  |  | 3 to 50 µM
15 | FC(F)(F)c1cccc(Nc2nc3c(-c4ccc(N5CCOCC5)cc4)nccn3n2)c1 [Example C12, [8-(4-Morpholin-4-yl-phenyl)-[1,2,4]triazolo[1,5-a]pyrazin-2-yl]-(3-trifluoromethyl-phenyl)-amine] | 3 to 50 µM |  | 
16 | c1ccc(Nc2nc3c(-c4ccccc4)nccn3n2)cc1 [Example C10, Phenyl-(8-phenyl-[1,2,4]triazolo[1,5-a]pyrazin-2-yl)-amine] | 0.3 to 3 µM | 0.3 to 3 µM | 
17 | Cc1c(N)cccc1-c1nccn2nc(Nc3ccc(N4CCOCC4)cc3)nc12 [Example C293, [8-(3-Amino-2-methyl-phenyl)-[1,2,4]triazolo[1,5-a]pyrazin-2-yl]-(4-morpholin-4-yl-phenyl)-amine] | 0.3 to 3 µM |  | 
18 | COc1cc(OC)cc(-c2nccn3nc(Nc4cc(C)cc(C)c4)nc23)c1 [Example C15, [8-(3,5-Dimethoxy-phenyl)-[1,2,4]triazolo[1,5-a]pyrazin-2-yl]-(3,5-dimethyl-phenyl)-amine] | 0.3 to 3 µM | 3 to 50 µM | 
19 | COCCCNc1nccn2nc(Nc3ccccc3)nc12 [Example C53, N^8-(3-Methoxy-propyl)-N^2-phenyl-[1,2,4]triazolo[1,5-a]pyrazine-2,8-diamine] | 3 to 50 µM | 3 to 50 µM | 
20 | COc1cc(Nc2nc3c(NC4CCCCC4N)nccn3n2)cc(OC)c1 (centres unmarked) [Example C54, N^8-(2-Amino-cyclohexyl)-N^2-(3,5-dimethoxy-phenyl)-[1,2,4]triazolo[1,5-a]pyrazine-2,8-diamine] | 3 to 50 µM |  | 
21 | COc1ccc(Nc2nc3c(-c4cccc(CN)c4)nccn3n2)cn1 [Example C254, [8-(3-Aminomethyl-phenyl)-[1,2,4]triazolo[1,5-a]pyrazin-2-yl]-(6-methoxy-pyridin-3-yl)-amine] | 0.3 to 3 µM |  | 
22 | O=C1Nc2cc(Nc3nc4c(Cl)nccn4n3)ccc2OC1(F)F [Example B7, 6-(8-Chloro-[1,2,4]triazolo[1,5-a]pyrazin-2-ylamino)-2,2-difluoro-4H-benzo[1,4]oxazin-3-one] | 0.3 to 3 µM |  | 
23 | Cn1ccnc1Sc1ccc(Nc2nccn3nc(Nc4cccc(C(F)(F)F)c4)nc23)cc1Cl [Example C68, N^8-[3-Chloro-4-(1-methyl-1H-imidazol-2-ylsulfanyl)-phenyl]-N^2-(3-trifluoromethyl-phenyl)-[1,2,4]triazolo[1,5-a]pyrazine-2,8-diamine] | 3 to 50 µM |  | 
24 | NCCNc1nccn2nc(Nc3ccccc3)nc12 [Example C49, N^8-(2-Amino-ethyl)-N^2-phenyl-[1,2,4]triazolo[1,5-a]pyrazine-2,8-diamine] | 3 to 50 µM | 3 to 50 µM | 
25 | COc1ccc(Nc2nc3c(-c4cnc5ccccc5c4)nccn3n2)cn1 [Example C262, (6-Methoxy-pyridin-3-yl)-(8-quinolin-3-yl-[1,2,4]triazolo[1,5-a]pyrazin-2-yl)-amine] | 0.3 to 3 µM |  | 
26 | COCCCNc1nccn2nc(Nc3cc(C)cc(C)c3)nc12 [Example C37, N^2-(3,5-Dimethyl-phenyl)-N^8-(3-methoxy-propyl)-[1,2,4]triazolo[1,5-a]pyrazine-2,8-diamine] | 3 to 50 µM | 3 to 50 µM | 
27 | Cc1cccc(Nc2nc3c(Nc4ccc5c(c4)NC(=O)C(F)(F)O5)nccn3n2)c1 [Example C71, 2,2-Difluoro-6-(2-m-tolylamino-[1,2,4]triazolo[1,5-a]pyrazin-8-ylamino)-4H-benzo[1,4]oxazin-3-one] | 3 to 50 µM |  | 
28 | Cc1cccc(Nc2nc3c(NCCN)nccn3n2)c1 [Example C45, N^8-(2-Amino-ethyl)-N^2-m-tolyl-[1,2,4]triazolo[1,5-a]pyrazine-2,8-diamine] | 3 to 50 µM | 3 to 50 µM | 

Reference: patent publication US9023851B2 (Merck Patent GmbH, priority 2010, dated 2015)
